According to patent US20240383954A1, “PEPTIDE INHIBITORS OF INTERLEUKIN-23 RECEPTOR AND THEIR USE TO TREAT INFLAMMATORY DISEASES” (Janssen Biotech, Inc., priority 2020, published 2024):
Positions of bridges follow the written chain, without caps; N, C: chain ends. Non-standard residues stand in square brackets, D forms with d. Residues, ends and D or L forms follow the SMILES beside them. *: point of attachment. Trp(7-Me) = Cc1cccc2c(C[C@H](N)C(=O)O)c[nH]c12; 2Nal = N[C@@H](Cc1ccc2ccccc2c1)C(=O)O; Propanoyl(3,3,3-F3) = O=C(CC(F)(F)F)*; AEF = NCCOc1ccc(C[C@H](N)C(=O)O)cc1; αMeF = C[C@](N)(Cc1ccccc1)C(=O)O; Cit = NC(=O)NCCC[C@H](N)C(=O)O; αMeL = CC(C)C[C@](C)(N)C(=O)O; Pen = CC(C)(S)[C@H](N)C(=O)O; αMeK = C[C@](N)(CCCCN)C(=O)O; Thp = NC1(C(=O)O)CCOCC1; NHBn = c1ccc(CN*)cc1; Propionyl = CCC(=O)*; X2 = c1c[nH]c(CN*)n1; Butyryl = CCCC(=O)*; X4 = C1CC(N*)CCN1

Target: IL-23R (Homo sapiens, UniProt Q5VWK5)
Assay: cell-based
Settings: PBMC pSTAT3 IC50 (nM), PBMCs from healthy donors, IL-23 5 ng/mL, 30 minutes, phosphorylated STAT3
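Note: cryopreserved PBMCs stimulated at 37 °C in 5% CO2, then lysed, with phosphorylated STAT3 quantified in lysates using a phospho-STAT panel kit.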

Chain of IL-23R (Q5VWK5 24-629): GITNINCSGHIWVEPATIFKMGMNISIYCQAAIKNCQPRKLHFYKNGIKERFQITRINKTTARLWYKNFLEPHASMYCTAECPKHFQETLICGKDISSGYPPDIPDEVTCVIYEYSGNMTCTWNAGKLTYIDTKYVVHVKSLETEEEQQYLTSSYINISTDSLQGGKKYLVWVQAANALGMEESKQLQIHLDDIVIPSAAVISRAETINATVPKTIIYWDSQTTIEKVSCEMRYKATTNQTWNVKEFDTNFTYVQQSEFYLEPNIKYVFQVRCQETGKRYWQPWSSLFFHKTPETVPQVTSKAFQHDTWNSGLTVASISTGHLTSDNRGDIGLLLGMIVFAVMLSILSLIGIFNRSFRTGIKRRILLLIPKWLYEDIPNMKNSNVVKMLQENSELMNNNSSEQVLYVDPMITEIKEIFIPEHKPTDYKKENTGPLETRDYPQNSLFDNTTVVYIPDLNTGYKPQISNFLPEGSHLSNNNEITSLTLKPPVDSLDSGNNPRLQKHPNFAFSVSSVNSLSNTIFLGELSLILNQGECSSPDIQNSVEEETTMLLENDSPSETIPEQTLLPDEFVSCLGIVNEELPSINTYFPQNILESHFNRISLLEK

| Structure (SMILES) | IC50 [nM] |
| --- | --- |
| C[C@@H](O)[C@@H]1NC(=O)[C@H](CCC(N)=O)NC(=O)[C@@H](NC(=O)[C@@H](CCCNC(=N)N)NC(=O)CC(F)(F)F)C(C)(C)SSC(C)(C)[C@@H](C(=O)N[C@@H](Cc2ccc(OCCN)cc2)C(=O)N[C@@H](Cc2ccc3ccccc3c2)C(=O)NC2(C(=O)N[C@@H](CCC(=O)O)C(=O)N[C@@H](CC(N)=O)C(=O)NC3(C(N)=O)CCOCC3)CCOCC2)NC(=O)[C@H](CCC(N)=O)NC(=O)[C@H](Cc2c[nH]c3ccccc23)NC1=O [Compound 5, [3,3,3-Trifluoropropionic acid]-[(D)Arg]-[Pen]-Q-T-W-Q-[Pen]-Phe[4-(2-aminoethoxy)]-[2-Nal]-[THP]-E-N-[THP]-NH2] ({Propanoyl(3,3,3-F3)}-[dR][Pen]QTWQ[Pen][AEF][2Nal][Thp]EN[Thp]-NH2; disulfide 2-7) | 4.7 |
| CCCC(=O)NCCCC[C@H](NC(=O)C1(NC(=O)[C@H](Cc2ccc3ccccc3c2)NC(=O)[C@H](Cc2ccc(OCCN)cc2)NC(=O)[C@H]2NC(=O)[C@H](CCC(N)=O)NC(=O)[C@H](Cc3c[nH]c4ccccc34)NC(=O)[C@H]([C@@H](C)O)NC(=O)[C@H](CCC(N)=O)NC(=O)[C@@H](NC(=O)[C@@H](CCCNC(=N)N)NC(C)=O)C(C)(C)SSC2(C)C)CCOCC1)C(=O)N[C@@H](CC(N)=O)C(=O)N[C@@H](Cc1ccccc1)C(N)=O [Compound 58, Ac-[(D)Arg]-[Pen]-Q-T-W-Q-[Pen]-Phe[4-(2-aminoethoxy)]-[2-Nal]-[THP]-[Lys(COPr)]-N-F-NH2] (Ac-[dR][Pen]QTWQ[Pen][AEF][2Nal][Thp]K(Butyryl)NF-NH2; disulfide 2-7) | 35 |
| CC(=O)N[C@H](CCCNC(=N)N)C(=O)N[C@H]1CCSC[C@@H](C(=O)N[C@@H](Cc2ccc(OCCN)cc2)C(=O)N[C@@H](Cc2ccc3ccccc3c2)C(=O)NC2(C(=O)N[C@@H](CCC(=O)O)C(=O)N[C@@H](CC(N)=O)C(=O)N[C@@](C)(Cc3ccccc3)C(N)=O)CCOCC2)NC(=O)[C@H](CCC(N)=O)NC(=O)[C@H](Cc2c[nH]c3ccccc23)NC(=O)[C@H]([C@@H](C)O)NC(=O)[C@H](CCC(N)=O)NC1=O [Compound 123, Ac-[(D)Arg]-[Abu]-Q-T-W-Q-[Cys]-Phe[4-(2-aminoethoxy)]-[2-Nal]-[THP]-E-N-[a-MePhe]-NH2] | 11 |
| CC(=O)N[C@H](CCCNC(=N)N)C(=O)N[C@@H]1C(=O)N[C@@H](CCC(N)=O)C(=O)N[C@@H]([C@@H](C)O)C(=O)N[C@@H](Cc2c[nH]c3ccccc23)C(=O)N[C@@H](CCC(N)=O)C(=O)N[C@H](C(=O)N[C@@H](Cc2ccc(OCCN)cc2)C(=O)N[C@@H](Cc2ccc3ccccc3c2)C(=O)NC2(C(=O)N[C@@H](CCC(=O)O)C(=O)N[C@@H](CC(N)=O)C(=O)N[C@@](C)(Cc3ccccc3)C(N)=O)CCOCC2)C(C)(C)SSC1(C)C [Compound 97, Ac-[(D)Arg]-[Pen]-Q-T-W-Q-[Pen]-Phe[4-(2-aminoethoxy)]-[2-Nal]-[THP]-E-N-[a-MePhe]-NH2] (Ac-[dR][Pen]QTWQ[Pen][AEF][2Nal][Thp]EN[αMeF]-NH2; disulfide 2-7) | 31 |
| C[C@@H](O)[C@@H]1NC(=O)[C@H](CCC(N)=O)NC(=O)[C@@H](NC(=O)[C@H](N)CCCNC(=N)N)CCSC[C@@H](C(=O)N[C@@H](Cc2ccc(OCCNC(=O)OC(C)(C)C)cc2)C(=O)N[C@@H](Cc2ccc3ccccc3c2)C(=O)NC2(C(=O)N[C@@H](CCC(=O)O)C(=O)N[C@@H](CC(N)=O)C(=O)NC3(C(N)=O)CCOCC3)CCOCC2)NC(=O)[C@H](CCC(N)=O)NC(=O)[C@H](Cc2c[nH]c3ccccc23)NC1=O [Compound 47, [(D)Arg]-[Abu]-Q-T-W-Q-[Cys]-Phe[4-(2-(Boc)aminoethoxy)]-[2-Nal]-[THP]-E-N-[THP]-NH2] | 5.3 |
| CC(=O)NCCCC[C@H](NC(=O)[C@](C)(CC(C)C)NC(=O)[C@H](Cc1ccc2ccccc2c1)NC(=O)[C@H](Cc1ccc(OCCN)cc1)NC(=O)[C@H]1NC(=O)[C@H](CCCNC(N)=O)NC(=O)[C@H](Cc2c[nH]c3c(C)cccc23)NC(=O)[C@H]([C@@H](C)O)NC(=O)[C@H](CC(N)=O)NC(=O)[C@@H](NC(C)=O)C(C)(C)SSC1(C)C)C(=O)N[C@@H](CC(N)=O)C(=O)NC1(C(N)=O)CCOCC1 [Compound 108, Ac-[Pen]-N-T-[W(7-Me)]-[Cit]-[Pen]-Phe[4-(2-aminoethoxy)]-[2-Nal]-[aMeLeu]-[Lys(Ac)]-N-[THP]-NH2] (Ac-[Pen]NT[Trp(7-Me)][Cit][Pen][AEF][2Nal][αMeL]K(Ac)N[Thp]-NH2; disulfide 1-6) | 5.1 |
| CC(=O)NCCCC[C@@H]1NC(=O)[C@H](Cc2c[nH]c3c(C)cccc23)NC(=O)[C@H]([C@@H](C)O)NC(=O)[C@H](CC(N)=O)NC(=O)[C@@H](NC(C)=O)C(C)(C)SSC(C)(C)[C@@H](C(=O)N[C@@H](Cc2ccc(OCCN)cc2)C(=O)N[C@@H](Cc2ccc3ccccc3c2)C(=O)NC2(C(=O)N[C@@H](CCC(=O)O)C(=O)N[C@@H](CC(N)=O)C(=O)NC3(C(N)=O)CCOCC3)CC2)NC1=O [Compound 317, MeCO-Pen-N-T-7MeW-K(Ac)-Pen-AEF-2Nal-Acpx-E-N-THP---CONH2] | 13 |
| CCC(=O)NCCCC[C@H](NC(=O)C1(NC(=O)[C@H](Cc2ccc3ccccc3c2)NC(=O)[C@H](Cc2ccc(OCCN)cc2)NC(=O)[C@H]2NC(=O)[C@H](CCC(N)=O)NC(=O)[C@H](Cc3c[nH]c4ccccc34)NC(=O)[C@H]([C@@H](C)O)NC(=O)[C@H](CCC(N)=O)NC(=O)[C@@H](NC(=O)[C@@H](CCCNC(=N)N)NC(C)=O)C(C)(C)SSC2(C)C)CCOCC1)C(=O)N[C@@H](CC(N)=O)C(=O)N[C@@H](Cc1ccccc1)C(N)=O [Compound 54, Ac-[(D)Arg]-[Pen]-Q-T-W-Q-[Pen]-Phe[4-(2-aminoethoxy)]-[2-Nal]-[THP]-[Lys(COEt)]-N-F-NH2] (Ac-[dR][Pen]QTWQ[Pen][AEF][2Nal][Thp]K(Propionyl)NF-NH2; disulfide 2-7) | 47 |
| CC(=O)NCCCC[C@@H]1NC(=O)[C@H](Cc2c[nH]c3ccccc23)NC(=O)[C@H]([C@@H](C)O)NC(=O)[C@H](CCC(N)=O)NC(=O)[C@@H](NC(C)=O)C(C)(C)SSC(C)(C)[C@@H](C(=O)N[C@@H](Cc2ccc(OCCN)cc2)C(=O)N[C@@H](Cc2ccc3ccccc3c2)C(=O)N[C@@](C)(CCCCN)C(=O)N[C@@H](CCCCNC(C)=O)C(=O)N[C@@H](CC(N)=O)C(=O)NC2(C(N)=O)CCOCC2)NC1=O [Compound 84, Ac-[Pen]-Q-T-W-[Lys(Ac)]-[Pen]-Phe[4-(2-aminoethoxy)]-[2-Nal]-[a-MeLys]-[Lys(Ac)]-N-[THP]-NH2] (Ac-[Pen]QTWK(Ac)[Pen][AEF][2Nal][αMeK]K(Ac)N[Thp]-NH2; disulfide 1-6) | 54 |
| CC(=O)N[C@H](CCCNC(=N)N)C(=O)N[C@@H]1C(=O)N[C@@H](CCC(N)=O)C(=O)N[C@@H]([C@@H](C)O)C(=O)N[C@@H](Cc2c[nH]c3ccccc23)C(=O)N[C@@H](CCC(N)=O)C(=O)N[C@H](C(=O)N[C@@H](Cc2ccc(OCCN)cc2)C(=O)N[C@@H](Cc2ccc3ccccc3c2)C(=O)NC2(C(=O)N[C@@H](CCC(=O)O)C(=O)N[C@@H](CC(N)=O)C(=O)N[C@@H](CC(=O)NCc3ccccc3)C(N)=O)CCOCC2)C(C)(C)SSC1(C)C [Compound 110, Ac-[(D)Arg]-[Pen]-Q-T-W-Q-[Pen]-Phe[4-(2-aminoethoxy)]-[2-Nal]-[THP]-E-N-[(N-benzyl)Asn]-NH2] (Ac-[dR][Pen]QTWQ[Pen][AEF][2Nal][Thp]END(NHBn)-NH2; disulfide 2-7) | 700 |
| CC(=O)N[C@H](CCCNC(=N)N)C(=O)N[C@@H]1C(=O)N[C@@H](CCC(N)=O)C(=O)N[C@@H]([C@@H](C)O)C(=O)N[C@@H](Cc2c[nH]c3ccccc23)C(=O)N[C@@H](CCC(N)=O)C(=O)N[C@H](C(=O)N[C@@H](Cc2ccc(OCCN)cc2)C(=O)N[C@@H](Cc2ccc3ccccc3c2)C(=O)NC2(C(=O)N[C@@H](CCC(=O)O)C(=O)N[C@@H](CC(N)=O)C(=O)N[C@@H](CC(=O)NC3CCNCC3)C(N)=O)CCOCC2)C(C)(C)SSC1(C)C [Compound 127, Ac-[(D)Arg]-[Pen]-Q-T-W-Q-[Pen]-Phe[4-(2-aminoethoxy)]-[2-Nal]-[THP]-E-N-[(N-Pip)Asn]-NH2] (Ac-[dR][Pen]QTWQ[Pen][AEF][2Nal][Thp]END(X4)-NH2; disulfide 2-7) | 48 |
| CC(=O)N[C@H](CCCNC(=N)N)C(=O)N[C@@H]1C(=O)N[C@@H](CCC(N)=O)C(=O)N[C@@H]([C@@H](C)O)C(=O)N[C@@H](Cc2c[nH]c3ccccc23)C(=O)N[C@@H](CCC(N)=O)C(=O)N[C@H](C(=O)N[C@@H](Cc2ccc(OCCN)cc2)C(=O)N[C@@H](Cc2ccc3ccccc3c2)C(=O)NC2(C(=O)N[C@@H](CCC(=O)O)C(=O)N[C@@H](CC(N)=O)C(=O)N[C@@H](CC(=O)NCc3ncc[nH]3)C(N)=O)CCOCC2)C(C)(C)SSC1(C)C [Compound 137, Ac-[(D)Arg]-[Pen]-Q-T-W-Q-[Pen]-Phe[4-(2-aminoethoxy)]-[2-Nal]-[THP]-E-N-[(N-(imidazol-2-yl)methyl)Asn]-NH2] (Ac-[dR][Pen]QTWQ[Pen][AEF][2Nal][Thp]END(X2)-NH2; disulfide 2-7) | 14 |
| CC(=O)N[C@H](CCCNC(=N)N)C(=O)N[C@@H]1C(=O)N[C@@H](CC(N)=O)C(=O)N[C@@H]([C@@H](C)O)C(=O)N[C@@H](Cc2c[nH]c3c(C)cccc23)C(=O)N[C@@H](CCC(N)=O)C(=O)N[C@H](C(=O)N[C@@H](Cc2ccc(OCCN)cc2)C(=O)N[C@@H](Cc2ccc3ccccc3c2)C(=O)NC2(C(=O)N[C@@H](CCC(=O)O)C(=O)N[C@@H](CC(N)=O)C(=O)N[C@@](C)(Cc3ccccc3)C(N)=O)CCOCC2)C(C)(C)SSC1(C)C [Compound 91, Ac-[(D)Arg]-[Pen]-N-T-[W(7-Me)]-Q-[Pen]-Phe[4-(2-aminoethoxy)]-[2-Nal]-[THP]-E-N-[a-MePhe]-NH2] (Ac-[dR][Pen]NT[Trp(7-Me)]Q[Pen][AEF][2Nal][Thp]EN[αMeF]-NH2; disulfide 2-7) | 4.1 |
| CCCC(=O)NCCCC[C@H](NC(=O)C1(NC(=O)[C@H](Cc2ccc3ccccc3c2)NC(=O)[C@H](Cc2ccc(OCCN)cc2)NC(=O)[C@H]2NC(=O)[C@H](CCC(N)=O)NC(=O)[C@H](Cc3c[nH]c4ccccc34)NC(=O)[C@H]([C@@H](C)O)NC(=O)[C@H](CCC(N)=O)NC(=O)[C@@H](NC(=O)[C@@H](CCCNC(=N)N)NC(C)=O)C(C)(C)SSC2(C)C)CCOCC1)C(=O)N[C@@H](CC(N)=O)C(=O)NC1(C(N)=O)CCOCC1 [Compound 52, Ac-[(D)Arg]-[Pen]-Q-T-W-Q-[Pen]-Phe[4-(2-aminoethoxy)]-[2-Nal]-[THP]-[Lys(COPr)]-N-[THP]-NH2] | 16 |
